Assay results from patent EP4806435A1, “DIHYDROCHROMENE-DERIVATIVE-CONTAINING THERAPEUTIC AGENT FOR CANCER” (Sumitomo Pharma Co., Ltd., priority 2023, dated 2025).

System: patients with recurrent malignant glioma classified as WHO grade III or IV
Assay: Phase 1 dose-escalation clinical trial: safety (TEAEs, DLTs, MTD);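 also: dosing continued until unacceptable toxicity, consent withdrawal, loss to follow-up or investigator/sponsor decision, with cohorts of 1-6 patients per dose level and MTD estimated by BLRM from cumulative DLT data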
[1] = 20 mg (N=2), cutoff April 21, 2023
[2] = 20 mg QD (N=2), cutoff April 21, 2024
[3] = 40 mg (N=4), cutoff April 21, 2023
[4] = 40 mg QD (N=4), cutoff April 21, 2024
[5] = 80 mg (N=3), cutoff April 21, 2023

Protocol: Administration to each subject was continued until unacceptable toxicity occurred, consent was withdrawn, the subject was lost to follow-up, or discontinuation was determined by the investigator and/or the sponsor.
The present study consists of two parts: a dose-escalation part (Part 1) and a dose-expansion part (Part 2).
Each dose level was evaluated in cohorts of 1-6 patients. In all cohorts, administration of the investigational drug to the second and subsequent patients was permitted after completion of all safety assessments on Day 8 of Cycle 1 in the first patient. […] At dose level 2 in the dose-escalation part, at least three patients were required to be evaluated before escalation to a higher dose level. After completion of each cohort, the probability of observing a DLT at each dose level in the present study was updated using the BLRM based on cumulative data from the preceding cohorts, and the MTD was estimated.

For `CC1(C)Oc2cc(Cl)ccc2[C@@H]2OCC3(CCN(CCn4ccnc4)CC3)C[C@H]21` [Compound 1, (4'aR,10'bR)-8'-chloro-1-[2-(1H-imidazol-1-yl)ethyl]-5',5'-dimethyl-4'a,10'b-dihydro-2'H,4'H,5'H-spiro[piperidine-4,3'-pyrano[3,2-c][1]benzopyran] diphosphate], the “Number of patients with any TEAE” value [1] was 2 (100) n (%), the “TEAE: constipation” value [1] was 0 n (%) and the “TEAE: decreased appetite” value [1] was 0 n (%). The “TEAE: decreased lymphocyte count” value [1] was 0 n (%), the “TEAE: decreased neutrophil count” value [1] was 0 n (%) and the “TEAE: decreased platelet count” value [1] was 0 n (%). The “TEAE: decreased white blood cell count” value [1] was 0 n (%), the “TEAE: dry skin” value [1] was 1 (50.0) n (%) and the “TEAE: fall” value [1] was 0 n (%). For the same compound, the “TEAE: headache” value [1] was 0 n (%), the “TEAE: hypertrigly-ceridaemia” value [1] was 0 n (%) and the “TEAE: hyponatremia” value [1] was 0 n (%). The “TEAE: increased alanine aminotransferase” value [1] was 1 (50.0) n (%), the “TEAE: increased aspartate aminotransferase” value [1] was 1 (50.0) n (%) and the “TEAE: nausea” value [1] was 1 (50.0) n (%). For the same compound, the “TEAE: seizure” value [1] was 1 (50.0) n (%), the “TEAE: vomiting” value [1] was 0 n (%) and the “Number of Patients with Any TEAE” value [2] was 2 (100) n (%). The “TEAE: Confusional state” value [2] was 0 n (%), the “TEAE: Gait disturbance” value [2] was 0 n (%) and the “TEAE: Gastrointestinal disorder” value [2] was 0 n (%). For the same compound, the “TEAE: Hiccups” value [2] was 0 n (%), the “TEAE: Tremor” value [2] was 0 n (%) and the “TEAE: alopecia” value [2] was 0 n (%). For the same compound, the “TEAE: constipation” value [2] was 0 n (%), the “TEAE: decreased appetite” value [2] was 0 n (%) and the “TEAE: decreased lymphocyte count” value [2] was 0 n (%). The “TEAE: decreased neutrophil count” value [2] was 0 n (%), the “TEAE: decreased platelet count” value [2] was 0 n (%) and the “TEAE: diarrhea” value [2] was 0 n (%). For the same compound, the “TEAE: dry skin” value [2] was 1 (50.0) n (%), the “TEAE: fall” value [2] was 0 n (%) and the “TEAE: fatigue” value [2] was 0 n (%). For the same compound, the “TEAE: headache” value [2] was 0 n (%), the “TEAE: hypertrigly-ceridaemia” value [2] was 0 n (%) and the “TEAE: hyponatremia” value [2] was 0 n (%). The “TEAE: increase in blood cholesterol” value [2] was 0 n (%), the “TEAE: increased alanine aminotransferase” value [2] was 1 (50.0) n (%) and the “TEAE: increased aspartate aminotransferase” value [2] was 1 (50.0) n (%). For the same compound, the “TEAE: maculopapular rash” value [2] was 0 n (%), the “TEAE: nausea” value [2] was 1 (50.0) n (%) and the “TEAE: seizure” value [2] was 1 (50.0) n (%). The “TEAE: vomiting” value [2] was 0 n (%), the dose-limiting toxicities (20 mg to 240 mg, cutoff April 21, 2023) was “No dose-limiting toxicities were observed at any dose level” and the “serious TEAE: seizure” value (20 mg, 120 mg, and 180 mg groups, cutoff April 21, 2023) was “three”. The “Number of patients with any TEAE” value [3] was 4 (100) n (%), the “TEAE: constipation” value [3] was 1 (25.0) n (%) and the “TEAE: decreased appetite” value [3] was 1 (25.0) n (%). The “TEAE: decreased lymphocyte count” value [3] was 2 (50.0) n (%), the “TEAE: decreased neutrophil count” value [3] was 2 (50.0) n (%) and the “TEAE: decreased platelet count” value [3] was 2 (50.0) n (%). For the same compound, the “TEAE: decreased white blood cell count” value [3] was 2 (50.0) n (%), the “TEAE: dry skin” value [3] was 0 n (%) and the “TEAE: fall” value [3] was 1 (25.0) n (%). For the same compound, the “TEAE: headache” value [3] was 1 (25.0) n (%), the “TEAE: hypertrigly-ceridaemia” value [3] was 1 (25.0) n (%) and the “TEAE: hyponatremia” value [3] was 1 (25.0) n (%). For the same compound, the “TEAE: increased alanine aminotransferase” value [3] was 1 (25.0) n (%), the “TEAE: increased aspartate aminotransferase” value [3] was 2 (50.0) n (%) and the “TEAE: nausea” value [3] was 2 (50.0) n (%). The “TEAE: seizure” value [3] was 1 (25.0) n (%), the “TEAE: vomiting” value [3] was 1 (25.0) n (%) and the “Number of Patients with Any TEAE” value [4] was 4 (100) n (%). The “TEAE: Confusional state” value [4] was 0 n (%), the “TEAE: Gait disturbance” value [4] was 0 n (%) and the “TEAE: Gastrointestinal disorder” value [4] was 0 n (%). The “TEAE: Hiccups” value [4] was 2 (50.0) n (%), the “TEAE: Tremor” value [4] was 0 n (%) and the “TEAE: alopecia” value [4] was 1 (25.0) n (%). For the same compound, the “TEAE: constipation” value [4] was 1 (25.0) n (%), the “TEAE: decreased appetite” value [4] was 1 (25.0) n (%) and the “TEAE: decreased lymphocyte count” value [4] was 2 (50.0) n (%). The “TEAE: decreased neutrophil count” value [4] was 2 (50.0) n (%), the “TEAE: decreased platelet count” value [4] was 2 (50.0) n (%) and the “TEAE: diarrhea” value [4] was 0 n (%). The “TEAE: dry skin” value [4] was 0 n (%), the “TEAE: fall” value [4] was 1 (25.0) n (%) and the “TEAE: fatigue” value [4] was 1 (25.0) n (%). The “TEAE: headache” value [4] was 1 (25.0) n (%), the “TEAE: hypertrigly-ceridaemia” value [4] was 1 (25.0) n (%) and the “TEAE: hyponatremia” value [4] was 1 (25.0) n (%). For the same compound, the “TEAE: increase in blood cholesterol” value [4] was 0 n (%), the “TEAE: increased alanine aminotransferase” value [4] was 1 (25.0) n (%) and the “TEAE: increased aspartate aminotransferase” value [4] was 2 (50.0) n (%). For the same compound, the “TEAE: maculopapular rash” value [4] was 0 n (%), the “TEAE: nausea” value [4] was 2 (50.0) n (%) and the “TEAE: seizure” value [4] was 1 (25.0) n (%). For the same compound, the “TEAE: vomiting” value [4] was 1 (25.0) n (%), the “serious TEAE: disease progression” value (40 mg QD group, cutoff April 21, 2024) was “one” and the “serious TEAE: disease progression” value (40 mg group, cutoff April 21, 2023) was “one”. For the same compound, the “Number of patients with any TEAE” value [5] was 3 (100) n (%), the “TEAE: constipation” value [5] was 0 n (%) and the “TEAE: decreased appetite” value [5] was 0 n (%). For the same compound, the “TEAE: decreased lymphocyte count” value [5] was 0 n (%), the “TEAE: decreased neutrophil count” value [5] was 2 (66.7) n (%) and the “TEAE: decreased platelet count” value [5] was 1 (33.3) n (%). For the same compound, the “TEAE: decreased white blood cell count” value [5] was 1 (33.3) n (%), the “TEAE: dry skin” value [5] was 0 n (%) and the “TEAE: fall” value [5] was 0 n (%). The “TEAE: headache” value [5] was 1 (33.3) n (%).
